Assay results published in PubChem BioAssay AID1963441 (Molecular Pharmacology Branch, DTP, NCI, 2024).

System: NCI-H1876 complex spheroid growth, % test/control
Test: Anticancer human tumor NCI-H1876 cell line growth inhibition [Asc];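 further: compound exposure lasted 7 days starting three days after seeding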;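 on viability, T/C: 100% = DMSO vehicle control wells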
Settings: for IC50: curve of first compound; for viability, T/C: stronger effect = lower value; active means viability on the fitted dose curve at most 10% of control; inactive means the rest
In short: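 Stromal components (HUVEC and hMSC) are co-assembled with the cancer cells into multicellular spheroids. Drugs are then added singly or paired, at concentrations falling by half-log increments from a clinically achievable maximum, capped at 10 microM without known Cmax.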

NC1CCC(NC2CC2c2ccccc2)CC1 (configuration not stated) + CCN1C(C(=O)NC23CCC(C(=O)O)(CC2)CC3)C(c2cccc(Cl)c2F)C2(C(=O)Nc3cc(Cl)ccc32)C12CCCCC2
inactive: viability, T/C (second compound 0.00949 µM, first compound 0.000316 µM) 103% | viability, T/C (second compound 0.00949 µM, first compound 0.001 µM) 105% | viability, T/C (second compound 0.00949 µM, first compound 0.00316 µM) 105% | viability, T/C (second compound 0.00949 µM, first compound 0.01 µM) 113% | viability, T/C (second compound 0.00949 µM, first compound 0.0316 µM) 108% | viability, T/C (second compound 0.00949 µM, first compound 0.1 µM) 119% | viability, T/C (second compound 0.03 µM, first compound 0.000316 µM) 112% | viability, T/C (second compound 0.03 µM, first compound 0.001 µM) 107% | viability, T/C (second compound 0.03 µM, first compound 0.00316 µM) 110% | viability, T/C (second compound 0.03 µM, first compound 0.01 µM) 117% | viability, T/C (second compound 0.03 µM, first compound 0.0316 µM) 120% | viability, T/C (second compound 0.03 µM, first compound 0.1 µM) 110% | viability, T/C (second compound 0.0949 µM, first compound 0.000316 µM) 106% | viability, T/C (second compound 0.0949 µM, first compound 0.001 µM) 117% | viability, T/C (second compound 0.0949 µM, first compound 0.00316 µM) 113% | viability, T/C (second compound 0.0949 µM, first compound 0.01 µM) 113% | viability, T/C (second compound 0.0949 µM, first compound 0.0316 µM) 117% | viability, T/C (second compound 0.0949 µM, first compound 0.1 µM) 112% | viability, T/C (second compound 0.3 µM, first compound 0.000316 µM) 117% | viability, T/C (second compound 0.3 µM, first compound 0.001 µM) 116% | viability, T/C (second compound 0.3 µM, first compound 0.00316 µM) 123% | viability, T/C (second compound 0.3 µM, first compound 0.01 µM) 124% | viability, T/C (second compound 0.3 µM, first compound 0.0316 µM) 118% | viability, T/C (second compound 0.3 µM, first compound 0.1 µM) 108% | viability, T/C (second compound 0.949 µM, first compound 0.000316 µM) 118% | viability, T/C (second compound 0.949 µM, first compound 0.001 µM) 121% | viability, T/C (second compound 0.949 µM, first compound 0.00316 µM) 134% | viability, T/C (second compound 0.949 µM, first compound 0.01 µM) 113% | viability, T/C (second compound 0.949 µM, first compound 0.0316 µM) 133% | viability, T/C (second compound 0.949 µM, first compound 0.1 µM) 116% | viability, T/C (second compound 3 µM, first compound 0.000316 µM) 122% | viability, T/C (second compound 3 µM, first compound 0.001 µM) 112% | viability, T/C (second compound 3 µM, first compound 0.00316 µM) 111% | viability, T/C (second compound 3 µM, first compound 0.01 µM) 126% | viability, T/C (second compound 3 µM, first compound 0.0316 µM) 125% | viability, T/C (second compound 3 µM, first compound 0.1 µM) 111%
> 100 nM: IC50 (second compound 0.00949 µM) | IC50 (second compound 0.03 µM) | IC50 (second compound 0.0949 µM) | IC50 (second compound 0.3 µM) | IC50 (second compound 0.949 µM) | IC50 (second compound 3 µM)
